Values of other authors in patent publication US8198303B2, “Methods of use and compositions for the diagnosis and treatment of infectious diseases” (Sequella, Inc., priority 2002, dated 2012).

Tested on: M. tuberculosis
Details: background statement on ethambutol

Compound: CC[C@@H](CO)NCCN[C@@H](CC)CO [ethambutol, Ethambutol]
- Minimum Inhibition Concentration (MIC): about 5 μg/ml
